Measurements taken from patent publication US10669242B2 (priority 2016, dated 2020).

target: T1, recombinant glucosyltransferase domain of C. difficile Toxin B/TcdB (Clostridioides difficile, UniProt P18177); assay: biochemical
T1 construct: 6-His (C); purchased R&D Systems 6246-GT
T1 sequence (P18177 1-543): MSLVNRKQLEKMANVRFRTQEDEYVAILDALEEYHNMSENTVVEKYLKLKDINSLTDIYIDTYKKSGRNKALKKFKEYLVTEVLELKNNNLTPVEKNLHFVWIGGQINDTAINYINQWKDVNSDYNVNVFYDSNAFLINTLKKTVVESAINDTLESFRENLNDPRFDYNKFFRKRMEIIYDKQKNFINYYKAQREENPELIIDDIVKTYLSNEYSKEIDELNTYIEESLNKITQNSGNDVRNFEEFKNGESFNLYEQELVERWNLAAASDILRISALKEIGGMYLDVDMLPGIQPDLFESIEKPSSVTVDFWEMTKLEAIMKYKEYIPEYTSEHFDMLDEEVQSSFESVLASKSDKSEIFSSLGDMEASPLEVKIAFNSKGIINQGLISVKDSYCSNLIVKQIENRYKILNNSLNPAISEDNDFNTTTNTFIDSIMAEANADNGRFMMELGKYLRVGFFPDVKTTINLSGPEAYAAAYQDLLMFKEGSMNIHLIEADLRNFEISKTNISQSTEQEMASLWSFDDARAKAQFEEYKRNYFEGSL

`O=C(Nc1ccc(F)cn1)c1ccc(CN2C(=O)c3ccc(Cl)cc3NC(=O)[C@H]2Cc2ccccn2)cc1F` [Example 6c, (R)-4-((8-chloro-2,5-dioxo-3-(pyridin-2-ylmethyl)-2,3-dihydro-1H-benzo[e][1,4]diazepin-4(5H)-yl)methyl)-2-fluoro-N-(5-fluoropyridin-2-yl)benzamide] and `Cc1ccc(NC(=O)c2ccc(CN3C(=O)c4ccc(Cl)cc4NC(=O)[C@H]3Cc3ccccn3)cc2F)nc1` [Example 6d, (R)-4-((8-chloro-2,5-dioxo-3-(pyridin-2-ylmethyl)-2,3-dihydro-1H-benzo[e][1,4]diazepin-4(5H)-yl)methyl)-2-fluoro-N-(5-methylpyridin-2-yl)benzamide] cannot be ordered by IC50: less than 0.1 µM for the first, less than 0.1 µM for the second.

First: O=C1Nc2cc(Cl)ccc2C(=O)N(Cc2ccc(C(=O)N3CCc4cccnc43)c(F)c2)[C@@H]1Cc1ccccn1 [Example 6e, (R)-8-chloro-4-(4-(2,3-dihydro-1H-pyrrolo[2,3-b]pyridine-1-carbonyl)-3-fluorobenzyl)-3-(pyridin-2-ylmethyl)-3,4-dihydro-1H-benzo[e][1,4]diazepine-2,5-dione]
Second: Cc1cnc2c(c1)CCN2C(=O)c1ccc(CN2C(=O)c3ccc(Cl)cc3NC(=O)[C@H]2Cc2ccccn2)cc1F [Example 6f, (R)-8-chloro-4-(3-fluoro-4-(5-methyl-2,3-dihydro-1H-pyrrolo[2,3-b]pyridine-1-carbonyl)benzyl)-3-(pyridin-2-ylmethyl)-3,4-dihydro-1H-benzo[e][1,4]diazepine-2,5-dione]
The IC50 of the first is higher: 0.1 to 0.999 µM for the first, less than 0.1 µM for the second. The second is the more potent here.

`O=C(O)c1ccc(CN2C(=O)c3ccc(Cl)cc3NC(=O)[C@H]2Cc2ccccn2)cc1Cl` [Example 7a, (R)-2-Chloro-4-((8-chloro-2,5-dioxo-3-(pyridin-2-ylmethyl)-2,3-dihydro-1H-benzo[e][1,4]diazepin-4(5H)-yl)methyl)benzoic Acid] and `Cc1cc(CN2C(=O)c3ccc(Cl)cc3NC(=O)[C@H]2Cc2ccccn2)ccc1C(=O)O` [Example 7b, (R)-4-((8-chloro-2,5-dioxo-3-(pyridin-2-ylmethyl)-2,3-dihydro-1H-benzo[e][1,4]diazepin-4(5H)-yl)methyl)-2-methylbenzoic acid] fall in the same range of IC50: 0.1 to 0.999 µM for the first, 0.1 to 0.999 µM for the second.

Compared with `O=C(O)c1c(Cl)cc(CN2C(=O)c3ccc(Cl)cc3NC(=O)[C@H]2Cc2ccccn2)cc1Cl` [Example 7c, (R)-2,6-dichloro-4-((8-chloro-2,5-dioxo-3-(pyridin-2-ylmethyl)-2,3-dihydro-1H-benzo[e][1,4]diazepin-4(5H)-yl)methyl)benzoic acid], `COc1cc(CN2C(=O)c3ccc(Cl)cc3NC(=O)[C@H]2Cc2ccccn2)ccc1C(=O)O` [Example 7d, (R)-4-((8-chloro-2,5-dioxo-3-(pyridin-2-ylmethyl)-2,3-dihydro-1H-benzo[e][1,4]diazepin-4(5H)-yl)methyl)-2-methoxybenzoic acid] is lower in IC50: 1 to 10 µM for the first, 0.1 to 0.999 µM for the second.

Compared with `O=C(O)c1ccc(CN2C(=O)c3ccc(Cl)cc3NC(=O)[C@H]2Cc2ccccn2)cc1-c1ccncc1` [Example 8a, (R)-4-((8-Chloro-2,5-dioxo-3-(pyridin-2-ylmethyl)-2,3-dihydro-1H-benzo[e][1,4]diazepin-4(5H)-yl)methyl)-2-(pyridin-4-yl)benzoic Acid], `O=C(O)c1ccc(CN2C(=O)c3ccc(Cl)cc3NC(=O)[C@H]2Cc2ccccn2)cc1-c1cccnc1` [Example 8m, (R)-4-((8-chloro-2,5-dioxo-3-(pyridin-2-ylmethyl)-2,3-dihydro-1H-benzo[e][1,4]diazepin-4(5H)-yl)methyl)-2-(pyridin-3-yl)benzoic acid] is higher in IC50: 0.1 to 0.999 µM for the first, 1 to 10 µM for the second.

`COc1cccc(-c2cc(CN3C(=O)c4ccc(Cl)cc4NC(=O)[C@H]3Cc3ccccn3)ccc2C(=O)O)c1` [Example 8b, (R)-5-((8-chloro-2,5-dioxo-3-(pyridin-2-ylmethyl)-2,3-dihydro-1H-benzo[e][1,4]diazepin-4(5H)-yl)methyl)-3′-methoxy-[1,1′-biphenyl]-2-carboxylic acid] and `Cc1cccc(-c2cc(CN3C(=O)c4ccc(Cl)cc4NC(=O)[C@H]3Cc3ccccn3)ccc2C(=O)O)c1` [Example 8h, (R)-5-((8-chloro-2,5-dioxo-3-(pyridin-2-ylmethyl)-2,3-dihydro-1H-benzo[e][1,4]diazepin-4(5H)-yl)methyl)-3′-methyl-[1,1′-biphenyl]-2-carboxylic acid] fall in the same range of IC50: 0.1 to 0.999 µM for the first, 0.1 to 0.999 µM for the second.

`O=C(O)c1ccc(CN2C(=O)c3ccc(Cl)cc3NC(=O)[C@H]2Cc2ccccn2)cc1-c1ccc2c(c1)OCO2` [Example 8c, (R)-2-(benzo[d][1,3]dioxol-5-yl)-4-((8-chloro-2,5-dioxo-3-(pyridin-2-ylmethyl)-2,3-dihydro-1H-benzo[e][1,4]diazepin-4(5H)-yl)methyl)benzoic acid] and `O=C(O)c1ccc(CN2C(=O)c3ccc(Cl)cc3NC(=O)[C@H]2Cc2ccccn2)cc1-c1ccc(F)c(Cl)c1` [Example 8l, (R)-3′-chloro-5-((8-chloro-2,5-dioxo-3-(pyridin-2-ylmethyl)-2,3-dihydro-1H-benzo[e][1,4]diazepin-4(5H)-yl)methyl)-4′-fluoro-[1,1′-biphenyl]-2-carboxylic acid] fall in the same range of IC50: 0.1 to 0.999 µM for the first, 0.1 to 0.999 µM for the second.

`O=C(O)c1ccc(CN2C(=O)c3ccc(Cl)cc3NC(=O)[C@H]2Cc2ccccn2)cc1-c1ccc(F)cc1` [Example 8d, (R)-5-((8-chloro-2,5-dioxo-3-(pyridin-2-ylmethyl)-2,3-dihydro-1H-benzo[e][1,4]diazepin-4(5H)-yl)methyl)-4′-fluoro-[1,1′-biphenyl]-2-carboxylic acid] and `Cc1ccc(-c2cc(CN3C(=O)c4ccc(Cl)cc4NC(=O)[C@H]3Cc3ccccn3)ccc2C(=O)O)cc1` [Example 8g, (R)-5-((8-chloro-2,5-dioxo-3-(pyridin-2-ylmethyl)-2,3-dihydro-1H-benzo[e][1,4]diazepin-4(5H)-yl)methyl)-4′-methyl-[1,1′-biphenyl]-2-carboxylic acid] fall in the same range of IC50: 0.1 to 0.999 µM for the first, 0.1 to 0.999 µM for the second.

`O=C(O)c1ccc(CN2C(=O)c3ccc(Cl)cc3NC(=O)[C@H]2Cc2ccccn2)cc1-c1ccccc1` [Example 8e, (R)-5-((8-chloro-2,5-dioxo-3-(pyridin-2-ylmethyl)-2,3-dihydro-1H-benzo[e][1,4]diazepin-4(5H)-yl)methyl)-[1,1′-biphenyl]-2-carboxylic acid] and `O=C(O)c1ccc(CN2C(=O)c3ccc(Cl)cc3NC(=O)[C@H]2Cc2ccccn2)cc1-c1cccc(Cl)c1` [Example 8j, (R)-3′-chloro-5-((8-chloro-2,5-dioxo-3-(pyridin-2-ylmethyl)-2,3-dihydro-1H-benzo[e][1,4]diazepin-4(5H)-yl)methyl)-[1,1′-biphenyl]-2-carboxylic acid] fall in the same range of IC50: 0.1 to 0.999 µM for the first, 0.1 to 0.999 µM for the second.

`COc1ccc(-c2cc(CN3C(=O)c4ccc(Cl)cc4NC(=O)[C@H]3Cc3ccccn3)ccc2C(=O)O)cc1` [Example 8f, (R)-5-((8-chloro-2,5-dioxo-3-(pyridin-2-ylmethyl)-2,3-dihydro-1H-benzo[e][1,4]diazepin-4(5H)-yl)methyl)-4′-methoxy-[1,1′-biphenyl]-2-carboxylic acid] and `O=C(O)c1ccc(CN2C(=O)c3ccc(Cl)cc3NC(=O)[C@H]2Cc2ccccn2)cc1-c1ccc(Cl)cc1` [Example 8i, (R)-4′-chloro-5-((8-chloro-2,5-dioxo-3-(pyridin-2-ylmethyl)-2,3-dihydro-1H-benzo[e][1,4]diazepin-4(5H)-yl)methyl)-[1,1′-biphenyl]-2-carboxylic acid] fall in the same range of IC50: 0.1 to 0.999 µM for the first, 0.1 to 0.999 µM for the second.

`O=C(O)c1ccc(CN2C(=O)c3ccc(Cl)cc3NC(=O)[C@H]2Cc2ccccn2)cc1-c1cccc(F)c1` [Example 8k, (R)-5-((8-chloro-2,5-dioxo-3-(pyridin-2-ylmethyl)-2,3-dihydro-1H-benzo[e][1,4]diazepin-4(5H)-yl)methyl)-3′-fluoro-[1,1′-biphenyl]-2-carboxylic acid] and `CNC(=O)c1cccc(-c2cc(CN3C(=O)c4ccc(Cl)cc4NC(=O)[C@H]3Cc3ccccn3)ccc2C(=O)O)c1` [Example 8p, (R)-5-((8-chloro-2,5-dioxo-3-(pyridin-2-ylmethyl)-2,3-dihydro-1H-benzo[e][1,4]diazepin-4(5H)-yl)methyl)-3′-(methylcarbamoyl)-[1,1′-biphenyl]-2-carboxylic acid] fall in the same range of IC50: 0.1 to 0.999 µM for the first, 0.1 to 0.999 µM for the second.

`CC(=O)Nc1ccc(-c2cc(CN3C(=O)c4ccc(Cl)cc4NC(=O)[C@H]3Cc3ccccn3)ccc2C(=O)O)cc1` [Example 8n, (R)-4′-acetamido-5-((8-chloro-2,5-dioxo-3-(pyridin-2-ylmethyl)-2,3-dihydro-1H-benzo[e][1,4]diazepin-4(5H)-yl)methyl)-[1,1′-biphenyl]-2-carboxylic acid] and `CC(=O)Nc1cccc(-c2cc(CN3C(=O)c4ccc(Cl)cc4NC(=O)[C@H]3Cc3ccccn3)ccc2C(=O)O)c1` [Example 8q, (R)-3′-acetamido-5-((8-chloro-2,5-dioxo-3-(pyridin-2-ylmethyl)-2,3-dihydro-1H-benzo[e][1,4]diazepin-4(5H)-yl)methyl)-[1,1′-biphenyl]-2-carboxylic acid] fall in the same range of IC50: 0.1 to 0.999 µM for the first, 0.1 to 0.999 µM for the second.

First: CNC(=O)c1ccc(-c2cc(CN3C(=O)c4ccc(Cl)cc4NC(=O)[C@H]3Cc3ccccn3)ccc2C(=O)O)cc1 [Example 8o, (R)-5-((8-chloro-2,5-dioxo-3-(pyridin-2-ylmethyl)-2,3-dihydro-1H-benzo[e][1,4]diazepin-4(5H)-yl)methyl)-4′-(methylcarbamoyl)-[1,1′-biphenyl]-2-carboxylic acid]
Second: O=C(O)c1ccc(CN2C(=O)c3ccc(Cl)cc3NC(=O)[C@H]2Cc2ccccn2)cc1-c1cn[nH]c1 [Example 8r, (R)-4-((8-chloro-2,5-dioxo-3-(pyridin-2-ylmethyl)-2,3-dihydro-1H-benzo[e][1,4]diazepin-4(5H)-yl)methyl)-2-(1H-pyrazol-4-yl)benzoic acid]
The IC50 of the first is higher: 1 to 10 µM for the first, 0.1 to 0.999 µM for the second.

Work on `Cn1nccc1-c1cc(CN2C(=O)c3ccc(Cl)cc3NC(=O)[C@H]2Cc2ccccn2)ccc1C(=O)O` [Example 8s, (R)-4-((8-chloro-2,5-dioxo-3-(pyridin-2-ylmethyl)-2,3-dihydro-1H-benzo[e][1,4]diazepin-4(5H)-yl)methyl)-2-(1-methyl-1H-pyrazol-5-yl)benzoic acid] yielded an IC50 of 1 to 10 µM.
